Assay results as given in US10633389B2, “CARM1 inhibitors and uses thereof” (Epizyme, Inc., priority 2013, dated 2020).

The compounds below were run on asymmetric di-methyl PABP1 in RKO cells (assay: RKO methylation assay, In Cell Western (ICW) for asymmetric di-methyl PABP1). Settings: Homo sapiens, RKO, Cellular potencies, ICW PABP1me2a.
Format: cell-based
Method in brief: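 In-cell Western on fixed RKO cells after 48 h compound exposure: anti-asymmetric di-methyl PABP1 signal at 800 nm over DRAQ5 DNA signal at 700 nm. Percent inhibition set between DMSO wells and wells with 20 μM reference compound; IC50 curves fitted in triplicate.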

Compound | IC50
CNC[C@H](O)COc1ccc(F)c(-c2nc(-c3c(C)noc3C)c(C)c(N3Cc4cccnc4C3)n2)c1 [Example 91-3] | < 5 µM
CNCC(O)COc1cccc(-c2nc(-c3c(C)noc3C)cc(N3CCN(S(C)(=O)=O)[C@@H](C)C3)n2)c1 (some centres unmarked) [Example 92-1a] | < 5 µM
CNC[C@H](O)COc1ccc(Cl)c(-c2nc(-c3c(C)noc3C)c(C)c(N3Cc4cccnc4C3)n2)c1 [Example 92-3] | < 5 µM
CNCC(O)COc1cccc(-c2nc(-c3c(C)noc3C)cc(N3CCN(C)[C@@H](C)C3)n2)c1 (some centres unmarked) [Example 93-1a] | < 5 µM
CCOC(=O)N1CCOC[C@@H]1CNc1nc(-c2cc(OCC(O)CNC)ccc2Cl)nc(-c2c(C)nsc2C)c1C (some centres unmarked) [Example 93-3] | < 5 µM
CNCC(O)COc1cccc(-c2nc(-c3c(C)noc3C)cc(N3C[C@@H]4C[C@H]3CN4C(=O)OC)n2)c1 (some centres unmarked) [Example 94-1a] | < 5 µM
CNC[C@H](O)COc1ccc(Cl)c(-c2nc(N[C@@H]3CCOC3)c(C)c(-c3c(C)noc3C)n2)c1 [Example 94-3] | < 5 µM
CNCC(O)COc1cccc(-c2nc(-c3c(C)noc3C)cc(N3C[C@@H]4C[C@H]3CN4C(C)=O)n2)c1 (some centres unmarked) [Example 95-1a] | 10 to 20 µM
CNC[C@H](O)COc1ccc(Cl)c(-c2nc(-c3c(C)noc3C)c(C)c(N(C)[C@H]3C[C@@](C)(OC)C3)n2)c1 [Example 95-3] | < 5 µM
CNCC(O)COc1cccc(-c2nc(NC3CCOCC3)c(F)c(-c3c(C)noc3C)n2)c1 (centres unmarked) [Example 96-1a] | < 5 µM
CNC[C@H](O)COc1ccc(Cl)c(-c2nc(NCC3COCCO3)c(C)c(-c3c(C)noc3C)n2)c1 (some centres unmarked) [Example 96-3] | < 5 µM
CNCC(O)COc1cccc(-c2nc(-c3c(C)noc3C)c(F)c(N3CCN(C(=O)OC)CC3)n2)c1 (centres unmarked) [Example 97-1a] | < 5 µM
CNCC(O)COc1ccc(Cl)c(-c2nc(NC3CCOCC3)c(C)c(-c3c(C)nsc3C)n2)c1 (centres unmarked) [Example 97-3] | < 5 µM
CNCC(O)COc1cccc(-c2nc(-c3c(C)noc3C)cc(N(CCOC)C3CCOCC3)n2)c1 (centres unmarked) [Example 98-1a] | < 5 µM
CNC[C@@H](O)COc1ccc(F)c(-c2nc(N[C@H]3CCN(C4CC4)C[C@H]3F)c(C)c(-c3c(C)noc3C)n2)c1 [Example 98-3] | < 5 µM
CNCC(O)COc1cccc(-c2nc(NCCCN3CCCCCC3=O)cc(-c3c(C)noc3C)n2)c1 (centres unmarked) [Example 99-1a] | < 5 µM
CNC[C@H](O)COc1ccc(F)c(-c2nc(N[C@H]3CCN(C4CC4)C[C@H]3F)c(C)c(-c3c(C)noc3C)n2)c1 [Example 99-3] | < 5 µM
CNCC(O)COc1cccc(-c2nc(-c3c(C)noc3C)cc(N3C[C@H]4C[C@@H]3CN4S(C)(=O)=O)n2)c1 (some centres unmarked) [Example 100-1a] | 5 to 10 µM
CNC[C@@H](O)COc1ccc(Cl)c(-c2nc(N[C@@H]3CCOC3)c(C)c(-c3c(C)noc3C)n2)c1 [Example 100-3] | < 5 µM
CNCC(O)COc1cccc(-c2nc(NC3(C)CCOCC3)c(C)c(-c3c(C)noc3C)n2)c1 (centres unmarked) [Example 101-1a] | < 5 µM
CNC[C@@H](O)COc1ccc(Cl)c(-c2nc(N[C@@H]3CCN(C(=O)OC)[C@@H](C)C3)c(C)c(-c3c(C)noc3C)n2)c1 [Example 101-3] | < 5 µM
CNCC(O)COc1cccc(-c2nc(NC3CCN(C(=O)OC)CC3)cc(-c3c(C)noc3C)n2)c1 (centres unmarked) [Example 102-1a] | < 5 µM

Compound | IC50
CNC[C@@H](O)COc1ccc(Cl)c(-c2nc(N[C@H]3CCN(C(=O)OC)[C@H](C)C3)c(C)c(-c3c(C)noc3C)n2)c1 [Example 102-3] | < 5 µM
CNCC(O)COc1cccc(-c2nc(-c3c(C)noc3C)cc(N3CCN(CCF)[C@@H](C)C3)n2)c1 (some centres unmarked) [Example 103-1a] | < 5 µM
CNC[C@H](O)COc1ccc(Cl)c(-c2nc(N[C@H]3CCN(C(=O)OC)[C@H](C)C3)c(C)c(-c3c(C)noc3C)n2)c1 [Example 103-3] | < 5 µM
CNCC(O)COc1cccc(-c2nc(-c3c(C)noc3C)cc(N3CCN(CC(F)(F)F)[C@@H](C)C3)n2)c1 (some centres unmarked) [Example 104-1a] | < 5 µM
CNC[C@@H](O)COc1ccc(Cl)c(-c2nc(NC3CCN(C(=O)OC)CC3)c(C)c(-c3c(C)noc3C)n2)c1 [Example 104-3] | < 5 µM
CCOC(=O)N1CCC(Nc2nc(-c3cc(OC[C@@H](O)CNC)ccc3Cl)nc(-c3c(C)noc3C)c2C)CC1 [Example 105-3] | < 5 µM
CCNC(=O)N1CCN(c2nc(-c3cccc(OCC(O)CNC)c3)nc(-c3c(C)noc3C)c2C)CC1 (centres unmarked) [Example 106-1a] | 5 to 10 µM
CNC[C@H](O)COc1ccc(F)c(-c2nc(-c3c(C)noc3C)c(C)c(N3CCC4(CCN(C(=O)OC)C4)C3)n2)c1 (some centres unmarked) [Example 106-3] | < 5 µM
CNCC(O)COc1cccc(-c2nc(-c3c(C)noc3C)c(C)c(N3CCN(C(=O)C(F)F)CC3)n2)c1 (centres unmarked) [Example 107-1a] | < 5 µM
CNCC(O)COc1cccc(-c2nc(-c3c(C)noc3C)c(C)c(N3CCN(C(=O)C4CCOCC4)CC3)n2)c1 (centres unmarked) [Example 108-1a] | < 5 µM
CNC[C@@H](O)COc1ccc(Cl)c(-c2nc(-c3c(C)noc3C)c(C)c(N3CC4(CCN(C5CC5)CC4)C3)n2)c1 [Example 108-3] | < 5 µM
CNCC(O)COc1cccc(-c2nc(-c3c(C)noc3C)cc(N3C[C@H]4C[C@@H]3CN4)n2)c1 (some centres unmarked) [Example 109-1a] | 10 to 20 µM
CNC[C@@H](O)COc1ccc(Cl)c(-c2nc(-c3c(C)noc3C)c(C)c(N3CC4(CCN(C(=O)OC)CC4)C3)n2)c1 [Example 109-3] | < 5 µM
CNCC(O)COc1cccc(-c2nc(-c3c(C)noc3C)c(C)c(N3CCN4C(=O)OC[C@@H]4C3)n2)c1 (some centres unmarked) [Example 110-1a] | 5 to 10 µM
CNC[C@@H](O)COc1ccc(Cl)c(-c2nc(N[C@H]3C[C@@](C)(OC)C3)c(C)c(-c3c(C)noc3C)n2)c1 [Example 110-3] | < 5 µM
CNCC(O)COc1cccc(-c2nc(-c3c(C)noc3C)c(C)c(N3CC[C@@H](S(C)(=O)=O)C3)n2)c1 (some centres unmarked) [Example 111-1a] | 5 to 10 µM
CNC[C@@H](O)COc1ccc(Cl)c(-c2nc(N[C@H]3CCOC3)c(C)c(-c3c(C)noc3C)n2)c1 [Example 111-3] | < 5 µM
CNCC(O)COc1cccc(-c2nc(-c3c(C)noc3C)cc(-c3cnc4cnccn34)n2)c1 (centres unmarked) [Example 112-1a] | 10 to 20 µM
CCOC(=O)N1CC[C@@H](Nc2nc(-c3cc(OC[C@H](O)CNC)ccc3Cl)nc(-c3c(C)noc3C)c2C)C1 [Example 112-3] | < 5 µM
CNCC(O)COc1cccc(-c2nc(NCC3(O)CCOCC3)c(C)c(-c3c(C)noc3C)n2)c1 (centres unmarked) [Example 114-1a] | 10 to 20 µM
CNC[C@@H](O)COc1ccc(F)c(-c2nc(-c3c(C)noc3C)c(C)c(N3Cc4cccnc4C3)n2)c1 [Example 114-3] | < 5 µM
CNCC(O)COc1cccc(-c2nc(NCC3(C)CCOCC3)c(C)c(-c3c(C)noc3C)n2)c1 (centres unmarked) [Example 115-1a] | < 5 µM

Compound | IC50
CNC[C@@H](O)COc1ccc(Cl)c(-c2nc(-c3c(C)noc3C)c(C)c(N3CCC4(CC3)CN(C(=O)OC)C4)n2)c1 [Example 115-3] | < 5 µM
CNCC(O)COc1cccc(-c2nc(-c3c(C)noc3C)c(C)c(N3C[C@H]4CC[C@@H](C3)N4C)n2)c1 (some centres unmarked) [Example 116-1a] | 5 to 10 µM
CNC[C@@H](O)COc1ccc(Cl)c(-c2nc(OC[C@H]3CCCO3)c(C)c(-c3c(C)noc3C)n2)c1 [Example 116-3] | < 5 µM
CNCC(O)COc1cccc(-c2nc(-c3c(C)noc3C)c(C)c(N3[C@@H]4CC[C@H]3CN(C)C4)n2)c1 (some centres unmarked) [Example 117-1a] | 10 to 20 µM
CNC[C@@H](O)COc1ccc(Cl)c(-c2nc(OC[C@H]3CCOC3)c(C)c(-c3c(C)noc3C)n2)c1 [Example 117-3] | < 5 µM
CNCC(O)COc1cccc(-c2nc(NC3CCN(C(=O)OC)CC3)c(C)c(-c3c(C)noc3C)n2)c1 (centres unmarked) [Example 118-1a] | < 5 µM
CNC[C@@H](O)COc1ccc(Cl)c(-c2nc(-c3c(C)noc3C)c(C)c(N3CC4(CCOCC4)C3)n2)c1 [Example 118-3] | < 5 µM
CNC[C@@H](O)COc1ccc(Cl)c(-c2nc(-c3c(C)noc3C)c(C)c(N3CC4(CCCOC4)C3)n2)c1 [Example 119-3] | < 5 µM
CNCC(O)COc1cccc(-c2nc(-c3c(C)noc3C)cc(N3CCN(C(=O)N(C)C)CC3)n2)c1 (centres unmarked) [Example 120-1a] | < 5 µM
CNC[C@@H](O)COc1ccc(Cl)c(-c2nc(-c3c(C)noc3C)c(C)c(N3CC4(CCOC4)C3)n2)c1 [Example 120-3] | < 5 µM
CNCC(O)COc1cccc(-c2nc(-c3c(C)noc3C)c(C)c(N3CCN(C(=O)OCCF)CC3)n2)c1 (centres unmarked) [Example 121-1a] | < 5 µM
CNC[C@@H](O)COc1ccc(Cl)c(-c2nc(-c3c(C)noc3C)c(C)c(N3CC4(CCCO4)C3)n2)c1 [Example 121-3] | < 5 µM
CNC[C@@H](O)COc1ccc(Cl)c(-c2nc(-c3c(C)noc3C)c(C)c(N3CCc4nn(C)cc4C3)n2)c1 [Example 122-3] | < 5 µM
CNCC(O)COc1cccc(-c2nc(-c3c(C)noc3C)c(C)c(N3CCO[C@H](CNC)C3)n2)c1 (some centres unmarked) [Example 124-1a] | 5 to 10 µM
CNCC(O)COc1ccc(C)c(-c2nc(NC3CCOC(C)C3)c(C)c(-c3c(C)noc3C)n2)c1 (centres unmarked) [Example 124-3] | < 5 µM
CNCC(O)COc1cccc(-c2nc(-c3c(C)noc3C)c(C)c(N3CCO[C@H](CO)C3)n2)c1 (some centres unmarked) [Example 125-1a] | < 5 µM
CNCC(O)COc1ccc(C)c(-c2nc(NC3CCN(C(=O)OC)CC3)c(C)c(-c3c(C)noc3C)n2)c1 (centres unmarked) [Example 125-3] | < 5 µM
CNCC(O)COc1cccc(-c2nc(-c3c(C)noc3C)c(C)c(N3CCO[C@H](CN(C)S(C)(=O)=O)C3)n2)c1 (some centres unmarked) [Example 126-1a] | 5 to 10 µM
CNC[C@@H](O)COc1ccc(Cl)c(-c2nc(OC[C@@H]3CCOC3)c(C)c(-c3c(C)noc3C)n2)c1 [Example 126-3] | < 5 µM
CNCC(O)COc1cccc(-c2nc(-c3c(C)noc3C)c(C)c(N3CCO[C@H](CN(C)C(=O)OC)C3)n2)c1 (some centres unmarked) [Example 127-1a] | < 5 µM
CNC[C@@H](O)COc1ccc(Cl)c(-c2nc(NC3CCOCC3)c(C)c(-c3c(C)noc3C)n2)c1 [Example 127-3] | < 5 µM
